The values below come from patent publication US20130143869A1, “USE OF A CATIONIC AMPHIPHILIC DRUG FOR THE PREPARATION OF A FORMULATION FOR THE REDUCTION OF SUBCUTANEOUS ADIPOSE TISSUE” (Merz Pharma GmbH & CO. KGaA, priority 2010, published 2013).

Assay type in all cases: cell-based
Experiment [1] relates to human adipocyte cells. The experiment is described as follows: Membrane integrity: LDH release from human adipocytes (LDH assay). As to conditions: for IC50: read-out: IC50 48 hrs LDH; for Rel. max. LDH release [%] 48 hrs: Example 1, 48 hrs, relative to Triton-x 100 maximal LDH release. As for the experimental part: (§1) HWP were obtained in passage two and differentiated in vitro to mature adipocytes. Briefly, cells were initially cultured in preadipocyte growth medium at 37° C. and 5% CO2 to 70-80% confluency. Then, cells were seeded at 40,000 cells/ml into 96-well flat bottom tissue culture plates and incubated overnight to allow attachment. Differentiation was initiated by changing the medium to preadipopcyte differentiation medium for an additional 72 hrs. After differentiation was induced, the medium was replaced by adipocyte nutrition medium that was refreshed every 2-3 days over a period of 14 days until termination of differentiation. Differentiation status was checked via nile red staining of control cells.
(§2) For the cytotoxicity assays in this study pre-adipocytes were seeded at 40,000 cells/ml into a 96-well microtiter flat bottom plate. The test items were prepared in separate plates starting with the double concentrated maximal test concentration followed by a 1:2 serial dilution (Chloroquine and Fluoxetine 1:3) and then added to the cells. The test items were tested at 6 replicates/concentration. Each plate included negative controls (media plus solvent, 6 replicates), a drug interference control (all concentrations, duplicates), a background control (14 replicates), a positive (=cytotoxic) control (6 replicates doxorubicin, 1 μM final) and a positive control for maximal LDH-release (2 replicates, 2% Triton-x 100 final).
(§3) Relative cell viability was determined after 48 hrs exposure based on metabolic activity (i.e. resazurin conversion). Using a Victor^3 1420 Multilabel Counter, the resazurin conversion to the fluorescent resorufin by metabolically active cells was recorded at 560Ex/590Em. Membrane integrity was measured after 6 hrs and 48 hrs and the enzymatic activity of released LDH in the cell supernatant after 30 min of incubation at 492 nmabsorption/690 nmreference by a spectrophotometer. The volume withdrawn from the cultures for the LDH-assay was not replaced to keep cells in a less disturbed environment. The assay was conducted in a multiplexed format.
For the dose-response relationship, absolute absorption (OD treated wells−background) was plotted against the test item concentrations representing LDH leakage from the cells. For a better estimation of the test items' potential influencing the membrane integrity, relative, maximal LDH release in percent (see Table 2) was also calculated according to the following formula: […]
(§4) The effects on cytotoxicity in human adipocyte cells of a further 9 compounds were tested. The experimental set-up was identical to the one in example 1.

For experiment [2], the system named is human adipocyte cells. As to the kind of experiment: Cytotoxicity assay: metabolic activity (resazurin conversion) of human adipocytes. As for the experimental part: as §1
The test items 1 to 8 were prepared according to Table 1 to yield respective stock solutions. Said stock solutions were further diluted in assay media to obtain the double concentrated working solutions, which were subsequently diluted 1:2 in the final assay. […] Deoxycholate Na was selected as “reference compound”.
as §2, §3
In order to derive meaningful IC50 values from the primary data, the entire biological window of activity ranging from 0% to 100% viability should be covered and the resolution has to be sufficient. To improve data quality, the serial dilution factor used in previous experiments was reduced to a 1:2 and 1:3 dilution. […] IC50 (half maximal inhibitory concentration, calculated via Sigma Plot 10) values were determined for each test substance 1 to 8.
as §4
On the technique in general: Resazurin is reduced to fluorescent resorufin, in cell work by metabolically active cells.

In a further experiment the test system is Human white adipocytes. As to the kind of experiment: Apoptosis/necrosis detection, Annexin V-FITC/PI flow cytometry. The settings on record: for apoptosis/necrosis induction in human adipocytes (in words): 5, 24, 48 hrs, concentrations as in Table 4. The text has this: The apoptotic program is characterized by certain morphologic features. Loss of plasma membrane asymmetry is a well established indicator for apoptotic cells. In apoptotic cells, the membrane phospholipid phosphatidylserine (PS) is translocated from the inner to the outer leaflet of the plasma membrane, thereby exposing PS to the external environment. In general, this PS translocation is preceded by caspase activation. Annexin V labelled with FITC is a Ca^2+ dependent phospholipid-binding protein with high affinity for PS and binds to cells with externalized PS. Cells stained with Annexin V*FITC are therefore considered in an early apoptotic stage.
Staining with Annexin V-FITC is typically used in conjunction with a vital dye such as propidium iodide (PI) to allow discrimination between early apoptotic and necrotic cells. Necrotic dying cells are PI positive only. Cells that are viable are Annexin V and PI negative; cells that entered apoptosis are Annexin V positive and PI negative and cells that are in post apoptotic and/or necrotic phase are both Annexin V and PI positive.
Human white adipocytes that had been differentiated in vitro from pre-adipocytes as describe above were used. Measurements were performed after 5 hrs to catch early apoptotic/necrotic events and after 24 hrs and 48 hrs for later stages. Naringenin at 500 μM (reported to induce apoptosis in adipocytes) was used as positive control and media plus solvent was used as negative control. Each compound was tested in three different concentrations. […] Two more concentrations, one below and one above the IC50 were added.
Flow cytometry was performed with a dual laser FC500. After completion of the staining procedure, tubes were grouped into a FC500 carousel for semi-automated data acquisition. Cells were first acquired in “Setup” mode to tune the parameters FS, SS, FL1 and FL2. After completion of the setup, baseline compensation was switched on and cells were acquired. Cells were acquired without life-gate but using FS threshold to exclude debris. All cells were acquired using individually corrected settings.
After completion of data acquisition, analysis was done using the CXP software. If necessary, software-based post acquisition compensation was performed to fine-correct for fluorescence overlap not adjusted for during the acquisition phase. Quadrant markers were set based on the negative controls.
On the technique in general: In flow cytometry, cells or beads pass a laser one at a time.

[3] abbreviates: Homo sapiens, Adipocyte, Example 2, 48 hrs.
The mark [4] stands for this setting: Homo sapiens, Adipocyte, read-out: IC50 48 hrs Resazurin, Example 2, 48 hrs.
Setting [5] is: Homo sapiens, Adipocyte, read-out: IC50 (metabolic activity after 48 hrs), Example 1, 48 hrs exposure, resazurin.
Where [6] appears, read: read-out: IC50 (metabolic activity after 48 hrs), Example 1, 48 hrs exposure, resazurin.

The structures appear in SMILES notation. Counter-ions that a name gives are not always drawn.

What is called IC50 is the concentration that gives 50% inhibition. Regarding `COc1ccccc1OCCNCC(O)COc1cccc2[nH]c3ccccc3c12` (centres unmarked) [Carvedilol], the IC50 was approximately 22.2 µM in the experiment with human adipocyte cells [1] (setting [3]) and 28.4 µM in the experiment with human adipocyte cells [2] (setting [4]).

`CNCC[C@H](Oc1cccc2ccccc12)c1cccs1` [Duloxetine]: the concentration for half-maximal inhibition (IC50) with human adipocyte cells [1] (Homo sapiens, Adipocyte, 48 h) was approximately 31.9 µM; in the experiment on human adipocyte cells [2] (Homo sapiens, Adipocyte, 48 h, read-out: IC50 48 hrs Resazurin), 42.9 µM.

In the case of `O=C1C[C@@H](c2ccc(O)cc2)Oc2cc(O)cc(O)c21` [Naringenin], in the experiment with Human white adipocytes (500 μM, 5 hrs), the “Early Apoptosis [A-V*/PI*]” value is reported as 16, the “Necrosis/ Late Apoptosis [A-V*/PI*]” value is listed as 0.8 and the “Normal [A-V*/PI]” value is recorded as 83.2. Besides, in the experiment with Human white adipocytes (500 μM, 24 hrs), the “Early Apoptosis [A-V*/PI*]” value is 14.1, the “Necrosis/ Late Apoptosis [A-V*/PI*]” value is 4.1 and the “Normal [A-V*/PI]” value was determined as 81.8. Moreover, in the experiment with Human white adipocytes (500 μM, 48 hrs), the “Early Apoptosis [A-V*/PI*]” value worked out at 12.1, the “Necrosis/ Late Apoptosis [A-V*/PI*]” value is reported as 5.7 and the “Normal [A-V*/PI]” value was determined as 81.2. In addition, the “apoptosis/necrosis induction in human adipocytes (in words)” value with Human white adipocytes is on record as “small but clear increase in apoptotic/necrotic adipocytes over time”.

As for `Fc1ccc([C@@H]2CCNC[C@H]2COc2ccc3c(c2)OCO3)cc1` [Paroxetine], the IC50 was approximately 31.2 µM in the experiment with human adipocyte cells [1] (setting [3]) and 39.3 µM in the experiment on human adipocyte cells [2] (setting [4]).

`OCCN1CCN(CCCN2c3ccccc3Sc3ccc(Cl)cc32)CC1` [Perphenazine]: the IC50 was approximately 20.3 µM with human adipocyte cells [1] (setting [3]) and 25 µM in the experiment on human adipocyte cells [2] (setting [4]).

For `CCN(CC)CCCC(C)Nc1ccnc2cc(Cl)ccc12` (centres unmarked) [Test substance 1, Chloroquine], in the experiment with human adipocyte cells [1], the “Rel. max. LDH release [%] 48 hrs” value is recorded as 101.8%. Moreover, the IC50 with human adipocyte cells [2] (Homo sapiens, Adipocyte, 48 h, read-out: IC50 (metabolic activity after 48 hrs)) came out at 599 µM.

Regarding `CN(C)CCCC1(c2ccc(F)cc2)OCc2cc(C#N)ccc21` (centres unmarked) [Test substance 2, Citalopram HBr], the “Early Apoptosis [A-V*/PI*]” value was 21.5 in the experiment on Human white adipocytes (250 μM, 5 hrs); 32.4 with Human white adipocytes (250 μM, 24 hrs); 23.1 with Human white adipocytes (250 μM, 48 hrs); 31.3 in the experiment with Human white adipocytes (350 μM, 5 hrs); 57.6 with Human white adipocytes (350 μM, 24 hrs); 35.6 in the experiment with Human white adipocytes (350 μM, 48 hrs). For the same compound, the “Early Apoptosis [A-V*/PI*]” value in the experiment with Human white adipocytes (450 μM, 5 hrs) turned out to be 30.5; with Human white adipocytes (450 μM, 24 hrs) it was 26; with Human white adipocytes (450 μM, 48 hrs), 44.9. Moreover, the “Necrosis/ Late Apoptosis [A-V*/PI*]” value was 0.6 in the experiment with Human white adipocytes (250 μM, 5 hrs); 2.2 with Human white adipocytes (250 μM, 24 hrs); 3.3 in the experiment on Human white adipocytes (250 μM, 48 hrs); 1.5 in the experiment with Human white adipocytes (350 μM, 5 hrs); 4.7 in the experiment on Human white adipocytes (350 μM, 24 hrs); 10.7 in the experiment with Human white adipocytes (350 μM, 48 hrs). The “Necrosis/ Late Apoptosis [A-V*/PI*]” value with Human white adipocytes (450 μM, 5 hrs) amounted to 1.1; with Human white adipocytes (450 μM, 24 hrs), 23.9; in the experiment on Human white adipocytes (450 μM, 48 hrs), 26. Moreover, the “Normal [A-V*/PI]” value in the experiment on Human white adipocytes (250 μM, 5 hrs) is 77.9; with Human white adipocytes (250 μM, 24 hrs) it was 65.4; with Human white adipocytes (250 μM, 48 hrs), 79.6; in the experiment with Human white adipocytes (350 μM, 5 hrs), 67.2; in the experiment on Human white adipocytes (350 μM, 24 hrs), 37.7; in the experiment on Human white adipocytes (350 μM, 48 hrs), 53.7. In addition, the “Normal [A-V*/PI]” value in the experiment with Human white adipocytes (450 μM, 5 hrs) is recorded as 68.4; with Human white adipocytes (450 μM, 24 hrs) it was 50.1; in the experiment on Human white adipocytes (450 μM, 48 hrs) it was 29.1. The “apoptosis/necrosis induction in human adipocytes (in words)” value in the experiment with Human white adipocytes is listed as “clear apoptosis after 5 hrs with virtually no necrosis”. Further, the “Rel. max. LDH release [%] 48 hrs” value in the experiment on human adipocyte cells [1] is 100.7%. Moreover, the IC50 with human adipocyte cells [2] (setting [5]) came out at 431 µM.

In the case of `CN(C)CCC[C@@]1(c2ccc(F)cc2)OCc2cc(C#N)ccc21` [Test substance 3, Escitalopram oxalate], in the experiment on human adipocyte cells [1], the “Rel. max. LDH release [%] 48 hrs” value was 88.0%. Moreover, the IC50 in the experiment on human adipocyte cells [2] (setting [5]) was determined as 491 µM.

`COc1ccc([C@@H]2Sc3ccccc3N(CCN(C)C)C(=O)[C@@H]2OC(C)=O)cc1.Cl` [Test substance 6, Diltiazem HCl]: the “Rel. max. LDH release [%] 48 hrs” value in the experiment on human adipocyte cells [1] was 94.5%. Also, the IC50 in the experiment with human adipocyte cells [2] (setting [6]) stood at 800 µM.

Turning to `CC(CCc1ccccc1)NCC(O)c1ccc(O)c(C(N)=O)c1` (centres unmarked) [Test substance 7, Labetalol HCl], the “Rel. max. LDH release [%] 48 hrs” value in the experiment on human adipocyte cells [1] worked out at 101.1%. The IC50 with human adipocyte cells [2] (setting [5]) is 659 µM.

As for `C[C@H](CCC(=O)[O-])[C@H]1CC[C@H]2[C@@H]3CC[C@@H]4C[C@H](O)CC[C@]4(C)[C@H]3C[C@H](O)[C@]12C.[Na+]` [Test substance 8, Deoxycholate Na], the “Rel. max. LDH release [%] 48 hrs” value in the experiment with human adipocyte cells [1] is reported as 98.0%. Moreover, the IC50 in the experiment on human adipocyte cells [1] (Example 2, 48 hrs) is approximately 379 µM; in the experiment on human adipocyte cells [2] (read-out: IC50 48 hrs Resazurin, Example 2, 48 hrs, listed as Deoxycholate), approximately 616 µM; in the experiment on human adipocyte cells [2] (read-out: IC50 48 hrs Resazurin, Example 2, 48 hrs, listed as deoxycholate), 616 µM; with human adipocyte cells [2] (setting [6]) it was 446 µM.

Consider `Clc1ccc(C(Cn2ccnc2)OCc2ccsc2Cl)c(Cl)c1` (centres unmarked) [Thioconazole], for which the IC50 is approximately 7.4 µM in the experiment on human adipocyte cells [1] (Example 2, 48 hrs) and 10.5 µM in the experiment on human adipocyte cells [2] (read-out: IC50 48 hrs Resazurin, Example 2, 48 hrs).

`CN1CCN(CCCN2c3ccccc3Sc3ccc(C(F)(F)F)cc32)CC1` [Trifluoperazine]: the results for the IC50 in the experiment with human adipocyte cells [1] (setting [3]) and with human adipocyte cells [2] (setting [4]) were approximately 14.3 µM and 17.4 µM, respectively.
